{
  "source": "EPA's ToxRefDB 2",
  "key": {"rat [1]": {"system": "rat", "details": "Chronic toxicity, sprague dawley, Oral, Feed, dose end: 2 year, group: systemic"}, "rat [2]": {"system": "rat", "details": "Prenatal developmental toxicity study, wistar, Oral, Gavage/Intubation, dose end: 20 GD"}, "rat [3]": {"system": "rat", "details": "Prenatal developmental toxicity study, wistar, Oral, Feed, dose end: 21 GD"}, "rat [4]": {"system": "rat", "details": "Multigenerational reproductive toxicity study, wistar, Oral, Gavage/Intubation, dose end: 2 generation"}, "rat [5]": {"system": "rat", "details": "Prenatal developmental toxicity study, wistar, Oral, Gavage/Intubation, dose end: 19 GD"}, "rat [6]": {"system": "rat", "details": "Prenatal developmental toxicity study; wistar; Dermal; Topical; dose end: 15 GD; group: developmental; developmental / developmental malformation / bone / supernumerary"}, "rat [7]": {"system": "rat", "details": "Prenatal developmental toxicity study, wistar, Oral, Gavage/Intubation, dose end: 20 GD", "remark": "listed apart in the source"}, "rabbit": {"system": "rabbit", "details": "Prenatal developmental toxicity study, himalayan, Oral, Gavage/Intubation, dose end: 18 GD"}, "rat [8]": {"system": "rat", "details": "Developmental neurotoxicity study; sprague dawley; Oral; Gavage/Intubation; dose end: 42 PND; group: cannot be grouped; developmental / offspring survival late / [other] / [other]"}, "[9]": {"details": "systemic / pathology microscopic / pituitary gland / adenoma/carcinoma combined + systemic / in life observation / body weight / body weight…"}, "[10]": {"details": "group: developmental, developmental / developmental malformation / great vessels / [other] + developmental / developmental malformation / bone / fused + …"}, "[11]": {"details": "group: maternal, reproductive / offspring survival early / litter viability other / total litter loss + systemic / in life observation / body weight / body …"}, "[12]": {"details": "group: developmental, systemic / in life observation / body weight / fetal weight"}, "[13]": {"details": "group: maternal, reproductive / reproductive performance / postimplantation loss / postimplantation loss + reproductive / reproductive performance / …"}, "[14]": {"details": "group: offspring, systemic / in life observation / body weight / offspring (pup) weight + systemic / organ weight / spleen / absolute + systemic / organ …"}, "[15]": {"details": "group: parental, systemic / organ weight / liver / absolute + systemic / organ weight / thymus / absolute + systemic / organ weight / thymus / relative to …"}, "[16]": {"details": "group: reproductive, reproductive / reproductive performance / estrous cycle / length + reproductive / reproductive performance / estrous cycle / periodicity + …"}, "[17]": {"details": "group: developmental, developmental / developmental malformation / bone / delayed ossification + developmental / developmental malformation / bone / supernumerary…"}, "[18]": {"details": "group: maternal, systemic / in life observation / body weight / body weight gain + systemic / in life observation / food consumption / food consumption"}, "[19]": {"details": "group: maternal, systemic / in life observation / body weight / body weight gain + systemic / in life observation / food consumption / food consumption + …"}, "[20]": {"details": "group: developmental, developmental / developmental malformation / bone / supernumerary"}, "[21]": {"details": "group: maternal, systemic / in life observation / clinical signs / abnormal respiratory sounds + systemic / in life observation / clinical signs / altered …"}, "[22]": {"details": "group: developmental, developmental / developmental malformation / bone / arthrogryposis + developmental / developmental malformation / bone / malformation, total"}, "[23]": {"details": "group: maternal, reproductive / reproductive performance / resorptions / resorptions + systemic / in life observation / body weight / body weight gain + …"}},
  "data": [
    {"molecule": "O=c1c(-c2ccc(O)cc2)coc2cc(O)cc(O)c12", "note": "[Genistein]", "values": [
      {"measurement": "NEL", "setting": "rat [1]; systemic / organ weight / pituitary gland / absolute + systemic / organ weight / pituitary gland / relative to body weight", "result": 0.25, "unit": "mg/kg/day"},
      {"measurement": "LEL", "setting": "rat [1]; systemic / organ weight / pituitary gland / absolute + systemic / organ weight / pituitary gland / relative to body weight + systemic / …", "result": 5, "unit": "mg/kg/day"},
      {"measurement": "LOAEL", "setting": "rat [1]; [9]", "result": "> 25", "unit": "mg/kg/day"},
      {"measurement": "NOAEL", "setting": "rat [1]; [9]", "result": "≥ 25", "unit": "mg/kg/day"},
      {"measurement": "LEL", "setting": "rat [2]; group: developmental, developmental / developmental malformation / great vessels / [other]", "result": 150, "unit": "mg/kg/day"},
      {"measurement": "LOAEL", "setting": "rat [2]; [10]", "result": "> 1000", "unit": "mg/kg/day"},
      {"measurement": "NEL", "setting": "rat [2]; [10]", "result": 20, "unit": "mg/kg/day"},
      {"measurement": "NOAEL", "setting": "rat [2]; [10]", "result": "≥ 1000", "unit": "mg/kg/day"},
      {"measurement": "LEL", "setting": "rat [2]; [11]", "result": 1000, "unit": "mg/kg/day"},
      {"measurement": "LOAEL", "setting": "rat [2]; [11]", "result": "> 1000", "unit": "mg/kg/day"},
      {"measurement": "NEL", "setting": "rat [2]; [11]", "result": 150, "unit": "mg/kg/day"},
      {"measurement": "NOAEL", "setting": "rat [2]; [11]", "result": "≥ 1000", "unit": "mg/kg/day"},
      {"measurement": "LEL", "setting": "rat [3]; [12]", "result": 500, "unit": "mg/kg/day"},
      {"measurement": "LOAEL", "setting": "rat [3]; [12]", "result": "> 500", "unit": "mg/kg/day"},
      {"measurement": "NEL", "setting": "rat [3]; [12]", "result": 100, "unit": "mg/kg/day"},
      {"measurement": "NOAEL", "setting": "rat [3]; [12]", "result": "≥ 500", "unit": "mg/kg/day"},
      {"measurement": "LEL", "setting": "rat [3]; [13]", "result": 500, "unit": "mg/kg/day"},
      {"measurement": "LOAEL", "setting": "rat [3]; [13]", "result": "> 500", "unit": "mg/kg/day"},
      {"measurement": "NEL", "setting": "rat [3]; [13]", "result": 100, "unit": "mg/kg/day"},
      {"measurement": "NOAEL", "setting": "rat [3]; [13]", "result": "≥ 500", "unit": "mg/kg/day"}
    ]},
    {"molecule": "OC(Cc1ccccc1Cl)(Cn1[nH]cnc1=S)C1(Cl)CC1", "note": "(centres undefined) [Prothioconazole]", "values": [
      {"measurement": "LEL", "setting": "rat [4]; [14]", "result": 750, "unit": "mg/kg/day"},
      {"measurement": "LOAEL", "setting": "rat [4]; [14]", "result": 750, "unit": "mg/kg/day"},
      {"measurement": "NEL", "setting": "rat [4]; [14]", "result": 100, "unit": "mg/kg/day"},
      {"measurement": "NOAEL", "setting": "rat [4]; [14]", "result": 100, "unit": "mg/kg/day"},
      {"measurement": "LOAEL", "setting": "rat [4]; [15]", "result": 750, "unit": "mg/kg/day"},
      {"measurement": "NEL", "setting": "rat [4]; [15]", "result": 10, "unit": "mg/kg/day"},
      {"measurement": "NOAEL", "setting": "rat [4]; [15]", "result": 100, "unit": "mg/kg/day"},
      {"measurement": "LEL", "setting": "rat [4]; group: parental, systemic / organ weight / thymus / absolute + systemic / organ weight / thymus / relative to body weight + systemic / organ weight / seminal…", "result": 100, "unit": "mg/kg/day"},
      {"measurement": "LEL", "setting": "rat [4]; [16]", "result": 750, "unit": "mg/kg/day"},
      {"measurement": "LOAEL", "setting": "rat [4]; [16]", "result": 750, "unit": "mg/kg/day"},
      {"measurement": "NEL", "setting": "rat [4]; [16]", "result": 100, "unit": "mg/kg/day"},
      {"measurement": "NOAEL", "setting": "rat [4]; [16]", "result": 100, "unit": "mg/kg/day"},
      {"measurement": "LEL", "setting": "rat [5]; [17]", "result": 1000, "unit": "mg/kg/day"},
      {"measurement": "LOAEL", "setting": "rat [5]; [17]", "result": "> 1000", "unit": "mg/kg/day"},
      {"measurement": "NEL", "setting": "rat [5]; [17]", "result": 200, "unit": "mg/kg/day"},
      {"measurement": "NOAEL", "setting": "rat [5]; [17]", "result": "≥ 1000", "unit": "mg/kg/day"},
      {"measurement": "LEL", "setting": "rat [5]; [18]", "result": 200, "unit": "mg/kg/day"},
      {"measurement": "LOAEL", "setting": "rat [5]; [18]", "result": 200, "unit": "mg/kg/day"},
      {"measurement": "NEL", "setting": "rat [5]; [19]", "result": 40, "unit": "mg/kg/day"},
      {"measurement": "NOAEL", "setting": "rat [5]; [19]", "result": 40, "unit": "mg/kg/day"},
      {"measurement": "LEL", "setting": "rat [6]", "result": 100, "unit": "mg/kg/day"},
      {"measurement": "LOAEL", "setting": "rat [6]", "result": 100, "unit": "mg/kg/day"},
      {"measurement": "NEL", "setting": "rat [6]", "result": "< 100", "unit": "mg/kg/day"},
      {"measurement": "NOAEL", "setting": "rat [6]", "result": "< 100", "unit": "mg/kg/day"},
      {"measurement": "LEL", "setting": "rat [7]; [20]", "result": 30, "unit": "mg/kg/day"},
      {"measurement": "LOAEL", "setting": "rat [7]; [20]", "result": 30, "unit": "mg/kg/day"},
      {"measurement": "NEL", "setting": "rat [7]; [20]", "result": "< 30", "unit": "mg/kg/day"},
      {"measurement": "NOAEL", "setting": "rat [7]; [20]", "result": "< 30", "unit": "mg/kg/day"},
      {"measurement": "LEL", "setting": "rat [7]; [21]", "result": 750, "unit": "mg/kg/day"},
      {"measurement": "LOAEL", "setting": "rat [7]; [21]", "result": 750, "unit": "mg/kg/day"},
      {"measurement": "NEL", "setting": "rat [7]; [21]", "result": 150, "unit": "mg/kg/day"},
      {"measurement": "NOAEL", "setting": "rat [7]; [21]", "result": 150, "unit": "mg/kg/day"},
      {"measurement": "LEL", "setting": "rabbit; [22]", "result": 10, "unit": "mg/kg/day"},
      {"measurement": "LOAEL", "setting": "rabbit; [22]", "result": 10, "unit": "mg/kg/day"},
      {"measurement": "NEL", "setting": "rabbit; [22]", "result": 2, "unit": "mg/kg/day"},
      {"measurement": "NOAEL", "setting": "rabbit; [22]", "result": 2, "unit": "mg/kg/day"},
      {"measurement": "LEL", "setting": "rabbit; [23]", "result": 50, "unit": "mg/kg/day"},
      {"measurement": "LOAEL", "setting": "rabbit; [23]", "result": 50, "unit": "mg/kg/day"},
      {"measurement": "NEL", "setting": "rabbit; [23]", "result": 10, "unit": "mg/kg/day"},
      {"measurement": "NOAEL", "setting": "rabbit; [23]", "result": 10, "unit": "mg/kg/day"}
    ]},
    {"molecule": "O=C([O-])c1ccccc1O.[Na+]", "note": "[Sodium salicylate]", "values": [
      {"measurement": "LEL", "setting": "rat [8]", "result": 12.5, "unit": "mg/kg/day"},
      {"measurement": "LOAEL", "setting": "rat [8]", "result": "> 150", "unit": "mg/kg/day"},
      {"measurement": "NEL", "setting": "rat [8]", "result": 4.2, "unit": "mg/kg/day"},
      {"measurement": "NOAEL", "setting": "rat [8]", "result": "≥ 150", "unit": "mg/kg/day"}
    ]}
  ]
}
